Test results from patent publication US9572786B2, “Use of capsiate or dihydrocapsidate” (Catholic University Industry Academy Cooperation Foundation, priority 2007, dated 2017).

What was measured:
HUVEC [1] = assay: VEGF-induced proliferation of endothelial cells, 3H-thymidine incorporation assay; format: cell-based, human; settings: 25 μM; 10 ng/mL VEGF
Procedure: The inhibition effect of capsiate or dihydrocapsiate on the proliferation of EC induced by VEGF was investigated by ^3H-thymidine incorporation assay according to a method published in the literature [Lee O H et al., 1999, Biochem. Biophys. Res. Commun., 264: 743-750].
In brief, HUVEC were placed on a gelatin-coated 24-well plate at a concentration of 2×10^4 cells/well. After culturing for 24 hours, followed by washing twice with M199 medium (Invitrogen, USA), the cells were cultured for 6 hours in M199 medium containing 1% FBS. After addition of 25 μM capsiate or dihydrocapsiate, followed by pre-culturing for 30 minutes, 10 ng/mL VEGF was added and the cells were cultured for 30 hours. Then, 0.5 μCi/mL ^3H-thymidine was added and the cells were cultured for 6 hours.
DNA was precipitated from the cultured cells in 10% trichloroacetic acid at 4° C. for 30 minutes and washed twice with water. The DNA was dissolved in 0.2 N NaOH/0.1% SDS and measured using a liquid scintillation counter.

HaCaT cells = assay: UV-induced intracellular ROS production (DCFH-DA fluorescence microscopy); format: cell-based, human; settings: 50 μM, UV 100 J/m^2, vs UV only control group
Procedure: 5×10^5 HaCaT cells (acquired from Professor N. Fusenig of the German Cancer Research Center), which are a human keratinocyte cell line, were placed on a 60 mm Petri dish (1×10^6 cells for a 100 mm Petri dish) and cultured for 24 hours in Dulbecco's modified Eagle's medium (DMEM) containing 10% fetal bovine serum (FBS).
After treating with 50 μM capsiate for 30 minutes, the cells were washed 3 times with phosphate buffered saline (PBS). In order to induce the production of ROS, UV was irradiated at an intensity of 100 J/m^2, using a UV lamp (FSX 24 T12/UVB/HO, Pansol™ USA). Immediately after the UV irradiation, the cells were washed again with PBS and further cultured for 2 hours in DMEM containing 1% FBS, which was treated with capsiate at the same concentration as in the pre-treatment. After treating with 25 μM 2,7-dichlorofliuorescin diacetate (DCFH-DA) in Hank's balanced salt solution (HBSS, BioWhittaker Cambrex, USA) for 30 minutes, the cells were washed 3 times with PBS.
The treated cells were observed under a fluorescence microscope (Carl Zeiss, USA) in order to measure the ROS produced by the UV irradiation. […]
Inhibition effect on the production of intracellular ROS induced by UV was measured in the same manner as Example 1-1, except for using dihydrocapsiate instead of capsiate.

[2] = test system: Human umbilical vein endothelial cells (HUVEC); assay: VEGF-induced proliferation of endothelial cells, MTT assay; format: cell-based; settings: for proliferation of HUVEC induced by VEGF (MTT): 1, 5, 10, 25 μM, 10 ng/mL VEGF, 48 hours; for growth of HUVEC without VEGF (cell toxicity): concentration up to 50 μM without VEGF, not shown in figure
Procedure: MTT assay was carried out investigate the effect of capsiate or dihydrocapsiate on the proliferation of endothelial cells (EC) induced by VEGF.
Human umbilical vein endothelial cells (HUVEC) were placed on a gelatin-coated 24-well plate at a concentration of 2×10^4 cells/well. After culturing for 24 hours, followed by washing twice with M199 medium (Invitrogen, USA), the cells were cultured for 6 hours in M199 medium containing 1% FBS. After addition of capsiate or dihydrocapsiate at different concentrations (1 μM, 5 μM, 10 μM, 25 μM), followed by pre-culturing for 30 minutes, 10 ng/mL VEGF (Upstate, USA) was added and the cells were cultured for 48 hours. Then, 3-(4,5-dimethylthiazol-2-yl)-2,5-diphenyltetrazolium bromide salt (MTT) solution (0.5 mg/mL) was added and the cells were cultured at 37° C. for 3 hours. Remaining MTT was cautiously removed and the formed crystal was dissolved in DMSO for 30 minutes and subjected to absorbance measurement at 560 nm after mixing well for 5 minutes.

HUVEC [3] = assay: Chemotactic mobility, Transwell assay; format: cell-based, human; settings: 1, 5, 10, 25 μM; 4 hours
Procedure: Transwell assay (Corning Costar, USA) was carried out in order to investigate the effect of capsiate or dihydrocapsiate on chemotactic mobility of HUVEC [Lee O H et al., 1999, Biochem. Biophys. Res. Commun. 264; 743-750].
In brief, the bottom side of a filter was coated with 10 μg of gelatin and M199 medium containing VEGF and 1% FBS was added to the lower well. HUVEC were prepared by treating with trypsin and diluting in M199 medium containing 1% FBS to a concentration of 1×10^6 cells/mL. Capsiate or dihydrocapsiate at different concentrations (1 μM, 5 μM, 10 μM, 25 μM) were pre-treated at room temperature for 30 minutes. The cells in […] of medium were added to the upper well and cultured at 37° C. for 4 hours. After fixation, followed by staining with hematoxylin and eosin, the cells remaining on the top surface of the filter without moving were removed. The cells that migrated to the bottom side of the filter were observed and counted using an optical microscope (×200).

cyclin D1 = assay: Cyclin expression, Western blotting: cyclin D1; format: cell-based, human; settings: HUVEC; 1, 5, 10, 25 μM; 10 ng/mL VEGF; 12 hours
Procedure: (§1) 3×10^5 HUVEC were placed on a 60 mm plate and cultured for 24 hours. After washing twice with M199 medium (Invitrogen, USA), the cells were cultured in M199 medium containing 1% FBS for 6 hours. After adding capsiate or dihydrocapsiate at different concentrations (1 μM, 5 μM, 10 μM, 25 μM), followed by pre-culturing for 30 minutes, 10 ng/mL VEGF was added and the cells were cultured for 12 hours. The cells were collected and proteins obtained therefrom were quantitated and the expression level of the proteins was identified by Western blotting using antibodies of cyclin D1, cyclin E and cyclin A.

cyclin A = assay: Cyclin expression, Western blotting: cyclin A; format: cell-based, human; settings: HUVEC; 1, 5, 10, 25 μM; 10 ng/mL VEGF; 12 hours
Procedure: as §1

cyclin E = assay: Cyclin expression, Western blotting: cyclin E; format: cell-based, human; settings: HUVEC; 1, 5, 10, 25 μM; 10 ng/mL VEGF; 12 hours
Procedure: as §1

SMILES | VEGF-increased DNA synthesis in HUVEC (3H-thymidine incorporation) (HUVEC [1]) | production of intracellular ROS induced by UV (HaCaT cells) | proliferation of HUVEC induced by VEGF (MTT) [2] | growth of HUVEC without VEGF (cell toxicity) [2] | VEGF-increased chemotactic mobility of HUVEC (HUVEC [3]) | VEGF-increased cyclin D1 expression in protein level (cyclin D1) | VEGF-increased cyclin A expression in protein level (cyclin A) | VEGF-increased cyclin E expression in protein level (cyclin E)
COc1cc(COC(=O)CCCC/C=C/C(C)C)ccc1O [capsiate] | inhibited the DNA synthesis | decreased remarkably | inhibited by capsiate or dihydrocapsiate in a concentration-dependent manner | grew normally | decreased in a concentration-dependent manner | concentration-dependent decrease | concentration-dependent decrease | concentration-dependent decrease
COc1cc(COC(=O)CCCCCCC(C)C)ccc1O [dihydrocapsiate] | inhibited the DNA synthesis | decreased remarkably | inhibited by capsiate or dihydrocapsiate in a concentration-dependent manner | grew normally | decreased in a concentration-dependent manner | concentration-dependent decrease | concentration-dependent decrease | concentration-dependent decrease
